From patent US9951064B2, “Azaindazole compounds as inhibitors of T790M containing EGFR mutants” (Genentech, Inc., priority 2013, dated 2018)

Assays:
EGFR del746-750 T790M = target: T1, EGFR del746-750 T790M (Homo sapiens, UniProt P00533, DEL746-750/T790M); experiment: EGFR del746-750 T790M biochemical assay (Caliper mobility shift); details: 5 μM ATP; apparent Ki (Morrison fit) converted by Cheng-Prusoff, Km of ATP 2.1 μM; read-out: EGFR(T790M/d746-750) Ki
T1 construct: purchased Carna Biosciences 08-528
Summary of the method: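 Kinase reactions ran 30 min at room temperature (22 °C), then were stopped with 80 mM EDTA. Phosphorylated product and substrate were separated electrophoretically and quantified by Caliper mobility shift.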

EGFR T790M L858R = target: T2, EGFR T790M L858R (Homo sapiens, UniProt P00533, L858R/T790M); experiment: EGFR T790M L858R biochemical assay (Caliper mobility shift); details: 5 μM ATP; apparent Ki (Morrison fit) converted by Cheng-Prusoff, Km of ATP 1.3 μM
T2 construct: purchased Life Technologies PV4879
Summary of the method: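 Reactions run 30 minutes at room temperature (22 °C), stopped with 80 mM EDTA. Phosphorylated product and substrate separated electrophoretically and quantified by Caliper mobility shift.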

[1] = test system: H1975 (EGFR T790M/L858R) cell proliferation; experiment: H1975 proliferation assay (Cell Titer-Glo); type: cell-based; details: Homo sapiens, NCI-H1975, 72 h, NCI-H1975 cells, 72 hour incubation, read-out: H1975 antiproliferative EC50
Protocol: H1975 Proliferation Assays
All cell culture reagents were purchased from Invitrogen/Gibco. Cells are cultured at 37° C. at 5% CO2 and split as recommended by ATCC.

[2] = target: T3, phosphor-EGFR in H1975(L585R/T790M) mutant EGFR expressing cells (Homo sapiens, UniProt P00533, L858R/T790M); experiment: H1975 pEGFR MSD cellular assay; type: cell-based; details: NCI-H1975 cells, serum starved, 1 hour compound incubation, pEGFR Tyr1068 MSD; read-out: HI975 pEGFR EC50
T3 construct: host or cells: NCI-H1975
Summary of the method: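 NCI-H1975 cells, 30,000/well, serum-starved overnight, then treated 1 hour at 37° C with serially diluted compounds in serum-free medium (0.5% DMSO). Lysates captured on anti-phospho-EGFR plates overnight at 4° C, detected with SULFO-TAG anti-total EGFR by electrochemiluminescence. Inhibition vs untreated controls; EC50 from 4-parameter logistic fit.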

T2 sequence (P00533 25-1210 T790M/L858R): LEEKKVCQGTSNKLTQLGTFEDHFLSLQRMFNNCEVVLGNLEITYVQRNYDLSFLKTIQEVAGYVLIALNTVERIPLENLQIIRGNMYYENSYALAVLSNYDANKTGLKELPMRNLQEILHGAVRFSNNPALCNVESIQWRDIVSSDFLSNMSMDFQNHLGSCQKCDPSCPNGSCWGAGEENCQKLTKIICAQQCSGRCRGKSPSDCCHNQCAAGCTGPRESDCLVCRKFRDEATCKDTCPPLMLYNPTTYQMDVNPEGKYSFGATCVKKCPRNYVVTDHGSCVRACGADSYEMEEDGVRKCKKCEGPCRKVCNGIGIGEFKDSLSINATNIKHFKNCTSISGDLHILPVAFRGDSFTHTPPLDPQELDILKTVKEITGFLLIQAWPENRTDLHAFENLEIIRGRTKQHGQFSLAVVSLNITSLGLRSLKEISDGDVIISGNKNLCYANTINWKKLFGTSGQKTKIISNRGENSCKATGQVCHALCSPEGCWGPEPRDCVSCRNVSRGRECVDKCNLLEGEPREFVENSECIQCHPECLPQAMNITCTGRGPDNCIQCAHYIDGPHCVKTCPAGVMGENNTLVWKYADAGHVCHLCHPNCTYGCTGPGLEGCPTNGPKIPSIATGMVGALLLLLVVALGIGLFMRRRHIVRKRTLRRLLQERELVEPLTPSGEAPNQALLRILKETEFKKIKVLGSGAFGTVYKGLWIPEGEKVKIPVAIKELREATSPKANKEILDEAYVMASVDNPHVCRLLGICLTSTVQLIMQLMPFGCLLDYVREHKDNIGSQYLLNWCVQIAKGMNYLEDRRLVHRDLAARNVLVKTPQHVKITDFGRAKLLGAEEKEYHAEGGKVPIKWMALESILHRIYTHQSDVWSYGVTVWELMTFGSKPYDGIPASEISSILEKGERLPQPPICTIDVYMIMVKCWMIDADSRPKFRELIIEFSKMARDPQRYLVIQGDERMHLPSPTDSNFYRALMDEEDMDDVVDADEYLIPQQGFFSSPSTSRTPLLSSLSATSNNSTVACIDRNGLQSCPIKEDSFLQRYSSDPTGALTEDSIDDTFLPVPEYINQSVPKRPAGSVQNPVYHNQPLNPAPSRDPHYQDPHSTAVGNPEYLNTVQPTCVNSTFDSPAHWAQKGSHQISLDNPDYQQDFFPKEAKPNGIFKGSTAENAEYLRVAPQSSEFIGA
T3 sequence (P00533 25-1210 T790M/L858R): as above
T1 sequence (P00533 with tags, fused parts or gaps DEL746-750/T790M limits assumed): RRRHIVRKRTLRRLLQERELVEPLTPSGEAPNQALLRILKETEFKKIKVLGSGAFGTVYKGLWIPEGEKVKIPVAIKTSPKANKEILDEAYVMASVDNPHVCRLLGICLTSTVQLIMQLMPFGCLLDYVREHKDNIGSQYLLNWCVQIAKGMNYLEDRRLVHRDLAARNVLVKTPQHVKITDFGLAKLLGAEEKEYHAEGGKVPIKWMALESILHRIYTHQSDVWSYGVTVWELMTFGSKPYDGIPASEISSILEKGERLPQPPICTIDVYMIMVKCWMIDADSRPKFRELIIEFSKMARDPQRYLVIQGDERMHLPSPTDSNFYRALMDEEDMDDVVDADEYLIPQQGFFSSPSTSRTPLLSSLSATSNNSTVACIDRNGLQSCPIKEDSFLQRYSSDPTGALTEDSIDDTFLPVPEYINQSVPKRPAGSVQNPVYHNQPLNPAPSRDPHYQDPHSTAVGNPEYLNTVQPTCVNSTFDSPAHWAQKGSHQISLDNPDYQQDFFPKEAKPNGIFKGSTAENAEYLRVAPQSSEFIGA

Ki (EGFR del746-750 T790M) | Ki (EGFR T790M L858R) | EC50 [1] | EC50 [2] | SMILES
7.1 nM | 6.4 nM | 1470 nM | 265 nM | CCC(C)n1nc(N2CC[C@@H](O)C2)c2cnc(Nc3ccnc(N4CCC(CC#N)(OC)CC4)n3)cc21 (mixture of isomers) [Example 81, 2-(1-(4-(1-sec-Butyl-3-((R)-3-hydroxypyrrolidin-1-yl)-1H-pyrazolo[4,3-c]pyridin-6-ylamino)pyrimidin-2-yl)-4-methoxypiperidin-4-yl)acetonitrile]
1.2 nM | 0.8 nM | 1480 nM | 129 nM | CC(C)n1nc(N2C[C@@H](O)[C@H](F)C2)c2cnc(Nc3ccnc(N4CC[C@H](O)[C@H](F)C4)n3)cc21 (relative stereo) [Example 131, cis-3-Fluoro-1-(4-(3-(trans-3-fluoro-4-hydroxypyrrolidin-1-yl)-1-isopropyl-1H-pyrazolo[4,3-c]pyridin-6-ylamino)pyrimidin-2-yl)piperidin-4-ol]
6.3 nM | 2.7 nM | 2720 nM | 349 nM | CC(C)n1nc(N2CC(O)(C(F)(F)F)C2)c2cnc(Nc3ccnc(N4CC[C@H](O)[C@H](F)C4)n3)cc21 (racemic) [Example 129, (±)-cis-3-Fluoro-1-(4-(3-(3-hydroxy-3-(trifluoromethyl)azetidin-1-yl)-1-isopropyl-1H-pyrazolo[4,3-c]pyridin-6-ylamino)pyrimidin-2-yl)piperidin-4-ol]
3.3 nM | 1.8 nM | 1430 nM | 261 nM | CC(C)n1nc(N2CC(F)(CO)C2)c2cnc(Nc3ccnc(N4CC[C@H](O)[C@H](F)C4)n3)cc21 (racemic) [Example 130, (±)-cis-3-Fluoro-1-(4-(3-(3-fluoro-3-(hydroxymethyl)azetidin-1-yl)-1-isopropyl-1H-pyrazolo[4,3-c]pyridin-6-ylamino)pyrimidin-2-yl)piperidin-4-ol]
1.2 nM | 1.4 nM | 289 nM | 108 nM | CC(C)n1nc(N2CC(C)(O)C2)c2cnc(Nc3ccnc(-c4cnn(S(=O)(=O)C5CC5)c4)n3)cc21 [Example 82, 1-(6-(2-(1-(Cyclopropylsulfonyl)-1H-pyrazol-4-yl)pyrimidin-4-ylamino)-1-isopropyl-1H-pyrazolo[4,3-c]pyridin-3-yl)-3-methylazetidin-3-ol]
106 nM | 129 nM | 4620 nM | 9260 nM | CC(C)n1nc(NC(C)(C)C)c2cnc(Nc3ccnc(-c4cnn(S(=O)(=O)C5CC5)c4)n3)cc21 [Example 74, N^3-tert-Butyl-N^6-(2-(1-(cyclopropylsulfonyl)-1H-pyrazol-4-yl)pyrimidin-4-yl)-1-isopropyl-1H-pyrazolo[4,3-c]pyridine-3,6-diamine]
1.1 nM | 1.4 nM | 1010 nM | 134 nM | CCN1CCN(c2nn(C(C)C)c3cc(Nc4ccnc(-c5cnn(S(=O)(=O)C6CC6)c5)n4)ncc23)CC1 [Example 118, N-(2-(1-(Cyclopropylsulfonyl)-1H-pyrazol-4-yl)pyrimidin-4-yl)-3-(4-ethylpiperazin-1-yl)-1-isopropyl-1H-pyrazolo[4,3-c]pyridin-6-amine]
1.1 nM | 1.7 nM | 835 nM | 162 nM | CC(C)n1nc(N2CC[S+]([O-])CC2)c2cnc(Nc3ccnc(-c4cnn(S(=O)(=O)C5CC5)c4)n3)cc21 [Example 110, 4-(6-((2-(1-(Cyclopropylsulfonyl)-1H-pyrazol-4-yl)pyrimidin-4-yl)amino)-1-isopropyl-1H-pyrazolo[4,3-c]pyridin-3-yl)thiomorpholine 1-oxide]
15.1 nM | 5.6 nM | 1480 nM | 746 nM | CC(C#N)Nc1nn(C(C)C)c2cc(Nc3ccnc(N4CC[C@H](O)[C@H](F)C4)n3)ncc12 (relative stereo) [Example 179, 2-(6-(2-(cis-3-Fluoro-4-hydroxypiperidin-1-yl)pyrimidin-4-ylamino)-1-isopropyl-1H-pyrazolo[4,3-c]pyridin-3-ylamino)propanenitrile]
0.7 nM | 0.7 nM | 1160 nM | 177 nM | CC(C)n1nc(N2CC(C(=O)N3CC[C@H](CO)C3)C2)c2cnc(Nc3ccnc(-c4cnn(S(=O)(=O)C5CC5)c4)n3)cc21 [Example 166, (S)-(1-(6-(2-(1-(cyclopropylsulfonyl)-1H-pyrazol-4-yl)pyrimidin-4-ylamino)-1-isopropyl-1H-pyrazolo[4,3-c]pyridin-3-yl)azetidin-3-yl)(3-(hydroxymethyl)pyrrolidin-1-yl)methanone]
4.9 nM | 2.6 nM | 2860 nM | 1330 nM | CC(C)n1nc(N2CCC(C)(C(N)=O)C2)c2cnc(Nc3ccnc(N4CCC(C)(O)CC4)n3)cc21 (stereo not shown) [Example 157, 1-(6-(2-(4-Hydroxy-4-methylpiperidin-1-yl)pyrimidin-4-ylamino)-1-isopropyl-1H-pyrazolo[4,3-c]pyridin-3-yl)-3-methylpyrrolidine-3-carboxamide]
3.5 nM | 1.5 nM | 429 nM | 171 nM | CC[C@H](C)n1nc(N2CC(C(C)(C)O)C2)c2cnc(Nc3ccnc(N4CC[C@@H](O)[C@@H](F)C4)n3)cc21 (relative stereo) [Example 194, (3S,4R)-1-(4-((1-((S*)-sec-Butyl)-3-(3-(2-hydroxypropan-2-yl)azetidin-1-yl)-1H-pyrazolo[4,3-c]pyridin-6-yl)amino)pyrimidin-2-yl)-3-fluoropiperidin-4-ol]
0.6 nM | 0.8 nM | 201 nM | 7.5 nM | CC(C)n1nc(N2CCC(O)C2)c2cnc(Nc3ccnc(-c4cnn(S(=O)(=O)C5CC5)c4)n3)cc21 (stereo not shown) [Example 18, 1-(6-(2-(1-(Cyclopropylsulfonyl)-1H-pyrazol-4-yl)pyrimidin-4-ylamino)-1-isopropyl-1H-pyrazolo[4,3-c]pyridin-3-yl) pyrrolidin-3-ol]
1.7 nM | 1.9 nM | 377 nM | 113 nM | CC1CN(c2nn(C(C)C)c3cc(Nc4ccnc(-c5cnn(S(=O)(=O)C6CC6)c5)n4)ncc23)C(=O)N1 (stereo not shown) [Example 108, 1-(6-(2-(1-(Cyclopropylsulfonyl)-1H-pyrazol-4-yl)pyrimidin-4-ylamino)-1-isopropyl-1H-pyrazolo[4,3-c]pyridin-3-yl)-4-methylimidazolidin-2-one]
2.1 nM | 1.7 nM | 489 nM | 87.2 nM | CCC(C)n1nc(N2C[C@@H](F)[C@@H](N)C2)c2cnc(Nc3ccnc(N4CCC(C)(O)CC4)n3)cc21 (relative stereo) [Example 177, 1-(4-(3-(cis-3-Amino-4-fluoropyrrolidin-1-yl)-1-sec-butyl-1H-pyrazolo[4,3-c]pyridin-6-ylamino)pyrimidin-2-yl)-4-methylpiperidin-4-ol]
10.3 nM | 4.1 nM | 7820 nM | 1330 nM | CC(C)n1nc(N2CCO[C@@H](CO)C2)c2cnc(Nc3ccnc(N4CCC(O)C(F)C4)n3)cc21 (mixture of isomers) [Example 75, cis-3-Fluoro-1-(4-(3-((R)-2-(hydroxymethyl)morpholino)-1-isopropyl-1H-pyrazolo[4,3-c]pyridin-6-ylamino)pyrimidin-2-yl)piperidin-4-ol]
3.9 nM | 1.1 nM | 248 nM | 23.1 nM | CO[C@H]1CCN(c2nccc(Nc3cc4c(cn3)c(N3CC5(COC5)C3)nn4C(C)C)n2)C[C@H]1F (racemic) [Example 103, [2-((cis)-(±)-3-Fluoro-4-methoxypiperidin-1-yl)pyrimidin-4-yl]-[1-isopropyl-3-(2-oxa-6-azaspiro[3.3]hept-6-yl)-1H-pyrazolo[4,3-c]pyridin-6-yl]amine]
20.5 nM | 6.7 nM | > 10000 nM | 2140 nM | CC(C)n1nc(N2CC(C(C)(C)C(N)=O)C2)c2cnc(Nc3ccnc(N4CCC(C)(O)CC4)n3)cc21 [Example 84, 2-(1-(6-(2-(4-Hydroxy-4-methylpiperidin-1-yl)pyrimidin-4-ylamino)-1-isopropyl-1H-pyrazolo[4,3-c]pyridin-3-yl)azetidin-3-yl)-2-methylpropanamide]
11.4 nM | 6.4 nM | 3290 nM | 472 nM | CC(n1nc(N2CC3(COC3)C2)c2cnc(Nc3ccnc(N4CCC(C)(O)CC4)n3)cc21)C(F)(F)F (stereo not shown) [Example 87, 4-Methyl-1-[4-[(3-[2-oxa-6-azaspiro[3.3]heptan-6-yl]-1-(1,1,1-trifluoropropan-2-yl)-1H-pyrazolo[4,3-c]pyridin-6-yl)amino]pyrimidin-2-yl]piperidin-4-ol]
